Measured values as given in patent US10759816B2, “Heterocyclic compounds as RSV inhibitors” (Enanta Pharmaceuticals, Inc., priority 2016, dated 2020).

System: genotype A, "Long" strain RSV
Test: RSV-A in vitro cytoprotection assay in HEp-2 cells (ATPlite readout of cell viability)
Assay type: cell-based, Human respiratory syncytial virus
Conditions: human respiratory syncytial virus, HEp-2, HEp-2 cells, genotype A “Long” strain RSV, cytoprotection; read-out: Human RSV-A (“Long” strain) EC50
In short: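 HEp-2 cells (8,000/well) given 2-fold compound dilutions in duplicate, then infected with RSV-A Long strain stock; viability read by ATPlite luminescence after 4 days. EC50 derived from cytoprotection; cytotoxicity measured on parallel uninfected plate.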

O=C(NC1CC1)c1cc2c(s1)-c1ccccc1N(C(=O)c1ccc3ccc(N4CCOCC4)cc3n1)CC2 [Example 298]
EC50: > 800 nM

O=C(Nc1ccccc1)c1cc2c(s1)-c1ccccc1N(C(=O)c1cccc(N3CCOc4ccccc4C3)n1)CC2 [Example 299]
EC50: 400 to 800 nM

O=C(Nc1ccccn1)c1cc2c(s1)-c1ccccc1N(C(=O)c1cccc(N3CCOc4ccccc4C3)n1)CC2 [Example 300]
EC50: > 800 nM

Cc1cccnc1NC(=O)c1cc2c(s1)-c1ccccc1N(C(=O)c1cccc(N3CCOc4ccccc4C3)n1)CC2 [Example 301]
EC50: < 400 nM

Cn1ccnc1NC(=O)c1cc2c(s1)-c1ccccc1N(C(=O)c1cccc(N3CCOc4ccccc4C3)n1)CC2 [Example 302]
EC50: > 800 nM

O=C(Nc1ccc[nH]c1=O)c1cc2c(s1)-c1ccccc1N(C(=O)c1cccc(N3CCOc4ccccc4C3)n1)CC2 [Example 303]
EC50: > 800 nM

O=C(Nc1cccc(=O)[nH]1)c1cc2c(s1)-c1ccccc1N(C(=O)c1cccc(N3CCOc4ccccc4C3)n1)CC2 [Example 304]
EC50: > 800 nM

O=C(NCc1ccccc1)c1cc2c(s1)-c1ccccc1N(C(=O)c1cccc(N3CCOc4ccccc4C3)n1)CC2 [Example 305]
EC50: 400 to 800 nM

O=C(NCc1ccccn1)c1cc2c(s1)-c1ccccc1N(C(=O)c1cccc(N3CCOc4ccccc4C3)n1)CC2 [Example 306]
EC50: < 400 nM

O=C(NC1CCOCC1)c1cc2c(s1)-c1ccccc1N(C(=O)c1cccc(N3CCOc4ccccc4C3)n1)CC2 [Example 307]
EC50: < 400 nM

CN1CCC(NC(=O)c2cc3c(s2)-c2ccccc2N(C(=O)c2cccc(N4CCOc5ccccc5C4)n2)CC3)CC1 [Example 308]
EC50: < 400 nM

O=C(N[C@@H]1CCOC1)c1cc2c(s1)-c1ccccc1N(C(=O)c1cccc(N3CCOc4ccccc4C3)n1)CC2 [Example 309]
EC50: < 400 nM

O=C(N[C@H]1CCOC1)c1cc2c(s1)-c1ccccc1N(C(=O)c1cccc(N3CCOc4ccccc4C3)n1)CC2 [Example 310]
EC50: < 400 nM

O=C(Nc1ccccc1)Nc1cc2c(s1)-c1ccccc1N(C(=O)c1cccc(N3CCOc4ccccc4C3)n1)CC2 [Example 311]
EC50: > 800 nM

O=C(Nc1cc2c(s1)-c1ccccc1N(C(=O)c1cccc(N3CCOc4ccccc4C3)n1)CC2)NC1CC1 [Example 312]
EC50: > 800 nM

O=C(Nc1cc2c(s1)-c1ccccc1N(C(=O)c1cccc(N3CCOc4ccccc4C3)n1)CC2)c1ccccc1 [Example 313]
EC50: 400 to 800 nM

O=C(Nc1cc2c(s1)-c1ccccc1N(C(=O)c1cccc(N3CCOc4ccccc4C3)n1)CC2)C1CC1 [Example 314]
EC50: > 800 nM

O=C(Nc1cc2c(s1)-c1ccccc1N(C(=O)c1cccc(N3CCOc4ccccc4C3)n1)CC2)NS(=O)(=O)c1ccccc1 [Example 315]
EC50: > 800 nM

O=C(Nc1cc2c(s1)-c1ccccc1N(C(=O)c1cccc(N3CCOc4ccccc4C3)n1)CC2)NS(=O)(=O)C1CC1 [Example 316]
EC50: > 800 nM

Cc1cccc(F)c1NS(=O)(=O)c1cc2c(s1)-c1ccccc1N(C(=O)c1cccc(N3CCCOCC3)n1)CC2 [Example 317]
EC50: > 800 nM

O=C(c1cccc(N2CCCOCC2)n1)N1CCc2cc(S(=O)(=O)NC3CCOCC3)sc2-c2ccccc21 [Example 318]
EC50: > 800 nM

O=C(NC1CC1)c1cc2c(s1)-c1ccccc1N(C(=O)c1cccc(N3CCOc4ccccc43)n1)CC2 [Example 319]
EC50: > 800 nM

O=C(NC1CC1)c1cc2c(s1)-c1ccccc1N(C(=O)c1cccc(N3CCOCc4ccccc43)n1)CC2 [Example 320]
EC50: > 800 nM

COCC(C)(C)CNc1cccc(C(=O)N2CCc3cc(C(=O)NC4CC4)sc3-c3ccccc32)n1 [Example 321]
EC50: > 800 nM

COc1ccccc1C(C)(C)Nc1cccc(C(=O)N2CCc3cc(C(=O)NC4CC4)sc3-c3ccccc32)n1 [Example 322]
EC50: > 800 nM

Cc1cccc(F)c1NC(=O)c1cc2c(s1)-c1ccccc1N(C(=O)c1cccc(N3CCCOCC3)n1)CC2 [Example 323]
EC50: < 400 nM

CNC(=O)CCN(C)c1cccc(C(=O)N2CCc3cc(C(=O)Nc4c(C)cccc4F)sc3-c3ccccc32)n1 [Example 324]
EC50: 400 to 800 nM

CCS(=O)(=O)CCN(C)c1cccc(C(=O)N2CCc3cc(C(=O)Nc4c(C)cccc4F)sc3-c3ccccc32)n1 [Example 325]
EC50: < 400 nM

Cc1cccc(F)c1NC(=O)c1cc2c(s1)-c1ccccc1N(C(=O)c1cccc(N(CCO)C3CC3)n1)CC2 [Example 326]
EC50: 400 to 800 nM

Cc1cccc(F)c1NC(=O)c1cc2c(s1)-c1ccccc1N(C(=O)c1cccc(N(CCO)C3CCC3)n1)CC2 [Example 327]
EC50: < 400 nM

COCCN(c1cccc(C(=O)N2CCc3cc(C(=O)Nc4c(C)cccc4F)sc3-c3ccccc32)n1)C1CCC1 [Example 328]
EC50: < 400 nM

Cc1cccc(F)c1NC(=O)c1cc2c(s1)-c1ccccc1N(C(=O)c1cccc(NCCO)n1)CC2 [Example 329]
EC50: > 800 nM

CCOCCNc1cccc(C(=O)N2CCc3cc(C(=O)Nc4c(C)cccc4F)sc3-c3ccccc32)n1 [Example 330]
EC50: < 400 nM

Cc1cccc(F)c1NC(=O)c1cc2c(s1)-c1ccccc1N(C(=O)c1cccc(NCCOC(C)C)n1)CC2 [Example 331]
EC50: < 400 nM

Cc1cccc(F)c1NC(=O)c1cc2c(s1)-c1ccccc1N(C(=O)c1cccc(N3Cc4ccccc4OC(C)(C)C3)n1)CC2 [Example 332]
EC50: < 400 nM

Cc1cccc(F)c1NC(=O)c1cc2c(s1)-c1ccccc1N(C(=O)c1cccc(N(C)CCS(C)(=O)=O)n1)CC2 [Example 333]
EC50: < 400 nM

COCCCN(C)c1cccc(C(=O)N2CCc3cc(C(=O)Nc4c(C)cccc4F)sc3-c3ccccc32)n1 [Example 334]
EC50: > 800 nM

Cc1cccc(F)c1NC(=O)c1cc2c(s1)-c1ccccc1N(C(=O)c1cccc(NCc3ccco3)n1)CC2 [Example 335]
EC50: < 400 nM

Cc1cccc(F)c1NC(=O)c1cc2c(s1)-c1ccccc1N(C(=O)c1cccc(NCC3OCc4ccccc43)n1)CC2 (centres unmarked) [Example 336]
EC50: < 400 nM

Cc1cccc(F)c1NC(=O)c1cc2c(s1)-c1ccccc1N(C(=O)c1cccc(N(C)Cc3ccccn3)n1)CC2 [Example 337]
EC50: < 400 nM

Cc1cccc(F)c1NC(=O)c1cc2c(s1)-c1ccccc1N(C(=O)c1cccc(N(C)Cc3cccnc3)n1)CC2 [Example 338]
EC50: < 400 nM

Cc1cccc(F)c1NC(=O)c1cc2c(s1)-c1ccccc1N(C(=O)c1cccc(N(C)Cc3ccncc3)n1)CC2 [Example 339]
EC50: < 400 nM

Cc1cccc(F)c1NC(=O)c1cc2c(s1)-c1ccccc1N(C(=O)c1cccc(N[C@@H](C)c3ccccn3)n1)CC2 [Example 340]
EC50: > 800 nM

COc1ccccc1CN(C)c1cccc(C(=O)N2CCc3cc(C(=O)Nc4c(C)cccc4F)sc3-c3ccccc32)n1 [Example 341]
EC50: < 400 nM

COc1ccccc1CN(c1cccc(C(=O)N2CCc3cc(C(=O)Nc4c(C)cccc4F)sc3-c3ccccc32)n1)C1CC1 [Example 342]
EC50: 400 to 800 nM

COc1cccc(CN(C)c2cccc(C(=O)N3CCc4cc(C(=O)Nc5c(C)cccc5F)sc4-c4ccccc43)n2)c1 [Example 343]
EC50: < 400 nM

COc1ccc(CN(C)c2cccc(C(=O)N3CCc4cc(C(=O)Nc5c(C)cccc5F)sc4-c4ccccc43)n2)cc1 [Example 344]
EC50: < 400 nM

Cc1cccc(F)c1NC(=O)c1cc2c(s1)-c1ccccc1N(C(=O)c1cccc(NCc3cccc4ccccc34)n1)CC2 [Example 345]
EC50: > 800 nM

Cc1cccc(F)c1NC(=O)c1cc2c(s1)-c1ccccc1N(C(=O)c1cccc(N(C)Cc3cccc(-c4ccncc4)c3)n1)CC2 [Example 346]
EC50: 400 to 800 nM

COc1ccccc1[C@H](C)Nc1cccc(C(=O)N2CCc3cc(C(=O)Nc4c(C)cccc4F)sc3-c3ccccc32)n1 [Example 347]
EC50: > 800 nM

CCN(CCOC)c1cccc(C(=O)N2CCc3cc(C(=O)Nc4c(C)cccc4F)sc3-c3ccccc32)n1 [Example 348]
EC50: < 400 nM

Cc1cc(CNc2cccc(C(=O)N3CCc4cc(C(=O)Nc5c(C)cccc5F)sc4-c4ccccc43)n2)on1 [Example 349]
EC50: < 400 nM

Cc1cccc(F)c1NC(=O)c1cc2c(s1)-c1ccccc1N(C(=O)c1cccc(NCc3ncco3)n1)CC2 [Example 350]
EC50: < 400 nM

Cc1cccc(F)c1NC(=O)c1cc2c(s1)-c1ccccc1N(C(=O)c1cccc(N(C)Cc3cccc(-c4cccnc4)c3)n1)CC2 [Example 351]
EC50: > 800 nM

Cc1cccc(F)c1NC(=O)c1cc2c(s1)-c1ccccc1N(C(=O)c1cccc(N(C)Cc3cccc(-c4ccccc4)c3)n1)CC2 [Example 352]
EC50: 400 to 800 nM

Cc1cccc(F)c1NC(=O)c1cc2c(s1)-c1ccccc1N(C(=O)c1cccc(N(C)Cc3cccc4ccccc34)n1)CC2 [Example 353]
EC50: > 800 nM

Cc1cccc(F)c1NC(=O)c1cc2c(s1)-c1ccccc1N(C(=O)c1cccc(N(C)Cc3ccc4ccccc4c3)n1)CC2 [Example 354]
EC50: > 800 nM

Cc1cccc(F)c1NC(=O)c1cc2c(s1)-c1ccccc1N(C(=O)c1cccc(N(C)Cc3ccccc3-c3ccccc3)n1)CC2 [Example 355]
EC50: > 800 nM

COc1ccc2cc(CN(C)c3cccc(C(=O)N4CCc5cc(C(=O)Nc6c(C)cccc6F)sc5-c5ccccc54)n3)ccc2c1 [Example 356]
EC50: > 800 nM

Cc1cccc(F)c1NC(=O)c1cc2c(s1)-c1ccccc1N(C(=O)c1cccc(NCc3cccc(C(F)(F)F)n3)n1)CC2 [Example 357]
EC50: > 800 nM

Cc1cccc(F)c1NC(=O)c1cc2c(s1)-c1ccccc1N(C(=O)c1cccc(NC(C)(C)c3ccccn3)n1)CC2 [Example 358]
EC50: < 400 nM

COC[C@H]1CCCN1c1cccc(C(=O)N2CCc3cc(C(=O)Nc4c(C)cccc4F)sc3-c3cc(F)ccc32)n1 [Example 359]
EC50: < 400 nM

Cc1cccc(F)c1NC(=O)c1cc2c(s1)-c1ccccc1N(C(=O)c1cccc(N(C)Cc3ccc4ncccc4c3)n1)CC2 [Example 360]
EC50: < 400 nM

Cc1cccc(F)c1NC(=O)c1cc2c(s1)-c1ccccc1N(C(=O)c1cccc(NCC3(C)CCCO3)n1)CC2 (centres unmarked) [Example 361]
EC50: > 800 nM

Cc1cccc(F)c1NC(=O)c1cc2c(s1)-c1ccccc1N(C(=O)c1cccc(N(C)C3CCOCC3)n1)CC2 [Example 362]
EC50: < 400 nM
